Values quoted from earlier work, collected in US20050255458A1, “Drug discovery assays based on the biology of chronic disease” (priority 2002, published 2005).
Where “and” joins values, the source holds several entries; their conditions need not be identical. Equal values may be shown once. Read-outs that look alike come from different tables or passages of the source.

Experiments:
[1] = test system: ERK1 and ERK2; conditions: 20 μm, 15 min; cited from earlier work
[2] = test system: anagen hair follicles; conditions: cited from earlier work
[3] = test system: ERK; conditions: cited from earlier work
[4] = test system: third intron enhancer of the TNFα gene; conditions: PBMC stimulated with TPA; cited from earlier work
[5] = test system: ERK1/2; conditions: cited studies, various cells; cited from earlier work
[6] = test system: AR gene; conditions: cited from earlier work
[7] = test system: ERK; conditions: LNCaP; cited from earlier work
[8] = test system: ML-1 human myeloblastic leukemic cells; conditions: cited from earlier work; for increase in ERK activity: 0.3 ng/ml
[9] = 0.3-0.5 mmol/kg/day, from day 56; cited from earlier work
[10] = test system: AR gene; conditions: 50 μg/ml, 4 hours, 21-day-old rats; cited from earlier work
[11] = test system: TF; conditions: cited from earlier work
[12] = test system: metallothionein (MT); conditions: cited from earlier work
[13] = test system: LS 174T colon cancer cells; conditions: after the fourth day of treatment; cited from earlier work
[14] = test system: metallothionein (MT); conditions: non-transformed hepatocytes; cited from earlier work
[15] = test system: metallothionein (MT); conditions: cited from earlier work; remark: listed apart in the source
[16] = obese Zucker rats; cited from earlier work
[17] = test system: PFK-2/FBPase-2; conditions: diabetic animals, up to 15 days; cited from earlier work
[18] = test system: genetically obese ob/ob or db/db mice; conditions: low dose injection, for several hours; cited from earlier work
[19] = test system: obese (fa/fa) Zucker rats; conditions: chronic ICV microinjection; cited from earlier work
[20] = test system: VCAM-1; conditions: cited from earlier work
[21] = test system: monocytes on VCAM-1; conditions: cited from earlier work
[22] = target: AR (Homo sapiens, UniProt P10275); conditions: cited from earlier work
[23] = target: T1, long form leptin receptor (Rattus norvegicus, UniProt Q62959); conditions: CHO cells; cited from earlier work
T1 construct: expressed in transfected cells; host or cells: Chinese hamster ovary (CHO) cells
T1 sequence (Q62959 22-1162): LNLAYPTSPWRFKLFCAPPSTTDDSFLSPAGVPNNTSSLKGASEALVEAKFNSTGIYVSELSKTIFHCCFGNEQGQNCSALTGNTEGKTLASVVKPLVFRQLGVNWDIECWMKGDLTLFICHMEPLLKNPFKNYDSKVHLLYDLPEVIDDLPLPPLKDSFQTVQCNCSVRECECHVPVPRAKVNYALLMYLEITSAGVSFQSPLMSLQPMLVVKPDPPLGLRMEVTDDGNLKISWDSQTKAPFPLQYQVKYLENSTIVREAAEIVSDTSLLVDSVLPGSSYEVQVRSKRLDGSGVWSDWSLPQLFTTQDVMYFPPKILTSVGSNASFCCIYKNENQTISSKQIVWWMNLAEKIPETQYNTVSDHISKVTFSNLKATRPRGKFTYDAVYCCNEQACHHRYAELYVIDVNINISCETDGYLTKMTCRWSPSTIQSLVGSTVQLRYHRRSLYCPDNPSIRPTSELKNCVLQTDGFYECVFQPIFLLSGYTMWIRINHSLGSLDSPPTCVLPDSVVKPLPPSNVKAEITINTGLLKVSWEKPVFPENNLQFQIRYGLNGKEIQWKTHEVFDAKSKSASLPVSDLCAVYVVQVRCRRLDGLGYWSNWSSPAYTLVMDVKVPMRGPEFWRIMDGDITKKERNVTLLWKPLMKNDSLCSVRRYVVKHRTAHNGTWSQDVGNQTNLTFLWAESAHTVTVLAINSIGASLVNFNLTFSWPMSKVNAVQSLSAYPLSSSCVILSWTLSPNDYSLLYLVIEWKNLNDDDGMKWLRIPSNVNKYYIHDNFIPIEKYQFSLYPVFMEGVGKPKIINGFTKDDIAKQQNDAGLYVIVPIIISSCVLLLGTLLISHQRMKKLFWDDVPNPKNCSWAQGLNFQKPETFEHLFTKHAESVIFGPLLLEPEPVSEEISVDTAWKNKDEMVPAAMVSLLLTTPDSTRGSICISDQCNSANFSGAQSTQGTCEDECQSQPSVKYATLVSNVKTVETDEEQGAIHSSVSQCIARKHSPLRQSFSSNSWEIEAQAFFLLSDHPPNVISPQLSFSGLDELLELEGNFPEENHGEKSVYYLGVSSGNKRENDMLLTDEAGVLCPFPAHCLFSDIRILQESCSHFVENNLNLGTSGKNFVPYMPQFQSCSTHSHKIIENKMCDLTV

[24] = target: PTP1B (Homo sapiens, UniProt P18031); conditions: Huyer 1997; cited from earlier work
Sequence of PTP1B (P18031 whole entry, species assumed): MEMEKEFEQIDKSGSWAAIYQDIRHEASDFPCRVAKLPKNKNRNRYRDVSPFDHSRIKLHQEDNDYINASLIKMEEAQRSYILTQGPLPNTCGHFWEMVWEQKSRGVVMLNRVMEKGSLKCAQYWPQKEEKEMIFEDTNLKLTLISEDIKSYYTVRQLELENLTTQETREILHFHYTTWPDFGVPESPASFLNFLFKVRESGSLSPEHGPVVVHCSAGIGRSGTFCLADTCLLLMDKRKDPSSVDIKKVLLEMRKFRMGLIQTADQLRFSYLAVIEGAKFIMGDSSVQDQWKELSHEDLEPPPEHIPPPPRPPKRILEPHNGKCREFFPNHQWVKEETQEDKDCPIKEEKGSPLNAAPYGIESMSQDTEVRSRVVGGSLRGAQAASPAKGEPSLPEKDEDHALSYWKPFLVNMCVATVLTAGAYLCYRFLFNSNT

Sequence of AR (P10275 whole entry): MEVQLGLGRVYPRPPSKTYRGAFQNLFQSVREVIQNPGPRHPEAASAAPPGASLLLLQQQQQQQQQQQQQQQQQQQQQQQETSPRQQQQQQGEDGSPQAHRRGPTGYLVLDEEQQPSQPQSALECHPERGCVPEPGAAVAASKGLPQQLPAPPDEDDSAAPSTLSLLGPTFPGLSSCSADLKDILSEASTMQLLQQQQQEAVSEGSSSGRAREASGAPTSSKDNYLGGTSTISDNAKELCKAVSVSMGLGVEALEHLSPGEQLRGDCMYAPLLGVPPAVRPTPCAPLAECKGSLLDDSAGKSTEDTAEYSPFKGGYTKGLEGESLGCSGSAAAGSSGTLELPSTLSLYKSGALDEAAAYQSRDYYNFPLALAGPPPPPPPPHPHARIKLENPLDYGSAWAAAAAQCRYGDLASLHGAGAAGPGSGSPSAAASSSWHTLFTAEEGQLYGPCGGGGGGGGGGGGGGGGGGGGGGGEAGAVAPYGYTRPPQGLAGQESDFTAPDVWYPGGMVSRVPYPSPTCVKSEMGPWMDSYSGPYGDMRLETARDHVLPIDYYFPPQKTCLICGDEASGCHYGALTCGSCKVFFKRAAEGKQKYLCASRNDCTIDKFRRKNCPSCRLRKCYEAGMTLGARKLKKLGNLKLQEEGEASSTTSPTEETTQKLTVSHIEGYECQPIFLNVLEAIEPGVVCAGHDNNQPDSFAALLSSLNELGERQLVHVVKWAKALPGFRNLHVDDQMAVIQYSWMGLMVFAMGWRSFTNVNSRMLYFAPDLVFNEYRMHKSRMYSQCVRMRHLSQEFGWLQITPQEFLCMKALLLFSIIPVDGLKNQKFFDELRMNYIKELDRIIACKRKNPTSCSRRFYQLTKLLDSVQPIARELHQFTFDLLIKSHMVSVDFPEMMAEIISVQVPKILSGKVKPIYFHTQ

## CCCCCC1OC1CC=CCC=CCC=CCCCC(=O)O (centres unmarked) [14,15-EET, 14,15-epoxyeicosatrienoic acid]
[1]
  ERK1 and ERK2 phosphorylation: stimulated ERK1 and ERK2 phosphorylation

## CCCCCCCCCCCCCC(=O)O[C@@H]1[C@@H](C)[C@@]2(O)[C@@H](C=C(CO)C[C@]3(O)C(=O)C(C)=C[C@@H]23)[C@@H]2C(C)(C)[C@]12OC(C)=O [TPA, phorbol 12-myristate 13-acetate]
[2]; 6 days culture, A 23187 2 μM, TPA 1 μM, IL-1 100 ng per ml (Hoffmann 1997)
  hair growth: significantly inhibited hair growth
[2]; suspension culture (Harmon 1995), read-out: inhibition of total cumulative hair follicle growth
  IC50: 1 nM
[3]; Jurkat cells
  ERK phosphorylation: increased ERK phosphorylation
[4]
  DNase-I hypersensitivity of the third intron enhancer of the TNFα gene: enhanced
[5]
  phosphorylation of ERK1/2: phosphorylation of ERK1/2
[6]; Kumar 1998
  mouse AR mRNA: increase in mouse AR mRNA
[6]; Sertoli, 19 days old rats
  Effect on [mRNAAR]: ↓[mRNAAR]
[7]
  Effect on [ERK^phos]: ↑[ERK^phos]
[8]; 1 h
  increase in ERK activity: 6 fold
[8]; 3 h
  increase in ERK activity: 4 fold
[8]; 3-day 0.3 ng/ml, then 3 days without TPA
  ML-1 proliferation: cease proliferation

## Cc1occc(=O)c1[O-].Cc1occc(=O)c1[O-].[O]=[V+2] [bis(maltolato)oxovanadium]
[9]
  weight gain: decreased weight gain

## C[C@@H]1C[C@@H]([C@H](O)CC2CC(=O)NC(=O)C2)C(=O)[C@@H](C)C1 [cycloheximide]
[3]; oocytes
  ERK phosphorylation: decreased ERK phosphorylation
[10]
  increase in AR mRNA: 1.7±0.4 fold
[11]
  AGE-alb induced TF mRNA: completely suppressed

## CCCC(=O)[O-].[Na+] [sodium butyrate]
[12]; OC15 EC, OC15 END cells
  MT mRNA levels: increased MT mRNA levels
[12]; OC15 carcinoma cells
  increase in MT mRNA: 20 fold
[13]
  growth of LS 174T cells: significant growth inhibition
[14]
  increase in MT mRNA: 2-4 fold
[5]
  phosphorylation of ERK1/2: phosphorylation of ERK1/2
[15]
  MT synthesis: dose-dependent increase

## [O]=[V]([O-])([O-])[O-] [vanadate, Vanadate (VO4^−3)]
[3]; as general PTP inhibitors
  ERK activation: activate ERK
[16]
  decrease in plasma glucose: 36%
  decrease in plasma insulin: 80%
[17]
  liver PFK-2/FBPase-2 mRNA content: progressive increase

## IL-1β: human recombinant IL-1β, an ERK agent
[2]; Xiong 1997
  growth of isolated scalp hair: growth inhibition
[18]
  glucose blood levels: normalization of glucose blood levels
[19]
  decrease in nighttime food intake: 66.1%

## MCP-1: a chemokine
[20]; 8.5 dyn/cm^2, 0-6.99 minutes of stimulation, 1 ng/ml
  average percent of monocyte remaining bound: 51%
[20]; 8.5 dyn/cm^2, 7.0-13.99 minutes
  average percent of monocyte remaining bound: 67%
[20]; 8.5 dyn/cm^2, 14.0-30.0 minutes
  average percent of monocyte remaining bound: 31%
[20]; 36 dyn/cm^2, 0-6.99 minutes
  average percent of monocyte remaining bound: 36%
[20]; 36 dyn/cm^2, 14.0-30.0 minutes
  average percent of monocyte remaining bound: 16%
[21]
  Average velocity: 2.43 ± 1.36 μm/min

## [^3H]methyltrienolone [[3H]methyltrienolone (R1881)]
[22]
  Bmax: 30.1 ± 4.3 fmol/mg protein and 26.8 ± 3.0 fmol/mg protein and 18.7 ± 4.4 fmol/mg protein

## leptin: an ERK agent that binds the long form leptin receptor
[23]
  tyrosine phosphorylation of STAT3 and ERK: increased tyrosine phosphorylation of STAT3 and ERK

## pervanadate
[24]
  PTP1B activity: inhibition
